Among the data in US5691373A, “Nonpeptide endothelin antagonists I” (Warner-Lambert Company, priority 1995, dated 1997) are IC50 values, retold here.

Structures can show the parent of a compound that is named as a salt. Where two headings read alike, the source gives them in different places.

Experiment [1] addresses T1, ETA (Oryctolagus cuniculus, UniProt A5A8K3).
T1 sequence (A5A8K3 21-427): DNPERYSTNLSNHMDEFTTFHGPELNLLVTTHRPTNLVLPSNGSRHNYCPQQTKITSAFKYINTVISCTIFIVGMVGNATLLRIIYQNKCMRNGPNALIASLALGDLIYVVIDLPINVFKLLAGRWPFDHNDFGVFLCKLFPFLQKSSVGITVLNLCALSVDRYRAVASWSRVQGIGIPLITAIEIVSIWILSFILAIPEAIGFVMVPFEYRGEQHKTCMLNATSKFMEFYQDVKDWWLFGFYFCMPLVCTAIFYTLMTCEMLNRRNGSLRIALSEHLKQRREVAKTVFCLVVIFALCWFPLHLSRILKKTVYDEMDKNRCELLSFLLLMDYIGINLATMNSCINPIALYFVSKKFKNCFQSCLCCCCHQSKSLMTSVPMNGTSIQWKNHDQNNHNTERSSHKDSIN

The target in experiment [2] is T2, human ETB receptor (Homo sapiens, UniProt P24530).
T2 construct: expressed in transfected cells; host or cells: CHO-K1 cells, pRc-CMW (so in the source) expression vector, electroporation; membranes used
T2 sequence (P24530 27-442): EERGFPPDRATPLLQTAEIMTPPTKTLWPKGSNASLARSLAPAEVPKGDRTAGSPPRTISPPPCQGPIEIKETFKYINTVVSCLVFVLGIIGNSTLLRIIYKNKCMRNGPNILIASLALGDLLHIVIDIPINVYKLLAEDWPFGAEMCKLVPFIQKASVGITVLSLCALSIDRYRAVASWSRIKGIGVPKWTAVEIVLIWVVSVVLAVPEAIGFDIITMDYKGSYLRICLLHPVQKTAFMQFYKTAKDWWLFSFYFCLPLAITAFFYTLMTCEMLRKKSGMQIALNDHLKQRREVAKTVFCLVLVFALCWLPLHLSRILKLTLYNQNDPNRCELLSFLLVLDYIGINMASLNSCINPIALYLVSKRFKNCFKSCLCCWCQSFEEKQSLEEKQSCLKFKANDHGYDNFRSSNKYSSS
The experiment can be described thus: ERBA-B: [125I]-ET-1 binding, recombinant human ETB receptor expressed in CHO-K1 cells. As to conditions: human cloned ETB receptor, read-out: ERBA-B IC50, human cloned receptor data. The procedure: Count filters for radioactivity in gamma counter.
The above process has also been modified by using human recombinant CHO-K1 cells.
The tissue used for human ETB was recombinant human ETB receptor expressed in CHO-K1 cells (chinese hamster ovary cells). The gene for human ETB receptor was cloned and inserted into the pRc-CMW expression vector, then transfected into CHO-K1 cells by electroporation. For binding assays, membranes (0.7 mg protein) of CHO-K1 cells expressing recombinant human ETB receptor were used.
^d Human cloned receptor data

Setting [3] is: ERBA-A IC50, [125I]-ET-1, rabbit renal artery vascular smooth muscle cells.

For orientation: IC50 means the point on the concentration scale where inhibition reaches its midpoint. On to `COc1ccc(C2(O)OC(=O)C(c3ccc4c(c3)OCO4)=C2Cc2cc(C)c(OC(C)C)c(C)c2)cc1` (stereo not shown) [Example 297, 3-Benzo[1,3]dioxol-5-yl-4-(3,5-dimethyl-4-isopropoxybenzyl)-5-hydroxy-5-(4-methoxy-phenyl)-5H-furan-2-one], for which the half-inhibitory concentration (IC50) in experiment [1] (setting [3]) stood at 64 nM; in experiment [2], 870 nM.
The like results for `COc1ccc(C(=O)/C(Cc2ccc(NC(C)=O)cc2)=C(\C(=O)O)c2ccc3c(c2)OCO3)cc1` [Example 366, Potassium 3-(4-Acetylamino-benzyl)-2-benzo[1,3]dioxol-5-yl-4-(4-methoxy-phenyl)-4-oxo-but-2-enoate] were, in that order, 7.3 nM and 4900 nM.
The corresponding values for `COC(=O)c1cccc(CC2=C(c3ccc4c(c3)OCO4)C(=O)OC2(O)c2ccc(OC)cc2)c1` (stereo not shown) [Example 286, Benzoic acid, 3-[[4-(1,3-benzodioxol-5-yl)-2,5-dihydro-2-hydroxy-2-(4-methoxyphenyl)-5-oxo-3-furanyl]methyl]-, methyl ester] are 4.6 nM and 6000 nM.
On to `COc1ccc(C2(O)OC(=O)C(c3ccc4c(c3)OCO4)=C2Cc2ccc(OC(C)C)c(OC)c2)cc1C` (stereo not shown) [Example 391, 3-Benzo[1,3]dioxol-5-yl-5-hydroxy-4-(4-isopropoxy-3-methoxy-benzyl)-5-(4-methoxy-3-methyl-phenyl)-5H-furan-2-one], for which the IC50 in experiment [1] (setting [3]) was 1.8 nM; in experiment [2] it was above 250 nM.
Consider `COc1ccc(C2(O)OC(=O)C(c3ccc4c(c3)OCO4)=C2Cc2cncc3ccccc23)cc1` (racemic) [Example 164, monohydrochloride], for which the IC50 was 50 nM in experiment [1] (setting [3]) and 4000 nM in experiment [2].
For the molecule `COc1ccc(C2(O)OC(=O)C(c3ccc4c(c3)OCO4)=C2Cc2ccc(OCc3ccccc3)c(OC)c2)cc1` (stereo not shown) [Example 309, 3-Benzo[1,3]dioxol-5-yl-4-(4-benzyloxy-3-methoxybenzyl)-5-hydroxy-5-(4-methoxy-phenyl)-5H-furan-2-one], the IC50 was determined as 18 nM in experiment [1] (setting [3]) and 860 nM in experiment [2].
For `COc1ccc(C(=O)/C(Cc2ccc(OC)c(C)c2)=C(\C(=O)O)c2ccc3c(c2)OCO3)cc1` [Example 172, 2-Butenoic acid, 2-(1,3-benzodioxol-5-yl)-3-[(4-methoxy-3-methylphenyl)methyl]-4-(4-methoxyphenyl)-4-oxo-, (Z)-, ion(1-) compd. with 2-hydroxy-N,N,N-trimethylethanaminium (1:1)], the 50% inhibitory concentration (IC50) was 7200 nM in experiment [1] (read-out: ERBA-A IC50, [125I]-ET-1, rabbit renal artery vascular smooth muscle cells) and above 2500 nM in experiment [2].
`COc1ccc(C(=O)/C(Cc2ccccc2)=C(\C(=O)O)c2cc(OC)c3c(c2)OCO3)cc1C` [Example 370, Sodium 3-Benzyl-2-(7-methoxy-benzo[1,3]dioxol-5-yl)-4-(4-methoxy-3-methyl-phenyl)-4-oxo-but-2-enoate]: the IC50 in experiment [1] (setting [3]) was 10 nM; in experiment [2] it was 1530 nM.
The like results for `COc1ccc(C2(O)OC(=O)C(c3ccc4c(c3)OCO4)=C2Cc2ccc(OC)cc2OCC(=O)O)cc1` (stereo not shown) [Example 344, {2-[4-Benzo[1,3]dioxol-5-yl-2-hydroxy-2-(4-methoxy-phenyl)-5-oxo-2,5-dihydro-furan-3-ylmethyl]-5-methoxy-phenoxy}-acetic acid] were, in that order, 380 nM and above 25000 nM.
For the molecule `COC(=O)Cc1ccc(CC2=C(c3ccc4c(c3)OCO4)C(=O)OC2(O)c2ccc(OC)cc2)cc1` (stereo not shown) [Example 291, {4-[4-Benzo[1,3]dioxol-5-yl-2-hydroxy-2-(4-methoxyphenyl)-5-oxo-2,5-dihydro-furan-3-ylmethyl]-phenyl}-acetic acid methyl ester], the results for the IC50 in experiment [1] (setting [3]) and in experiment [2] were 40 nM and 1400 nM, respectively.
The corresponding values for `COc1ccc(C2(O)OC(=O)C(c3ccc4c(c3)OCO4)=C2Cc2cccc(OC)c2OC)cc1` (stereo not shown) [Example 308, 3-Benzo[1,3]dioxol-5-yl-4-(2,3-dimethoxy-benzyl)-5-hydroxy-5-(4-methoxy-phenyl)-5H-furan-2-one] are 16 nM and 2200 nM.
